The term IC50 denotes the concentration needed to halve the response being measured.

The assay concerns the target T1, IRAK4 (Homo sapiens, UniProt Q9NWZ3).
T1 sequence (Q9NWZ3 1-460): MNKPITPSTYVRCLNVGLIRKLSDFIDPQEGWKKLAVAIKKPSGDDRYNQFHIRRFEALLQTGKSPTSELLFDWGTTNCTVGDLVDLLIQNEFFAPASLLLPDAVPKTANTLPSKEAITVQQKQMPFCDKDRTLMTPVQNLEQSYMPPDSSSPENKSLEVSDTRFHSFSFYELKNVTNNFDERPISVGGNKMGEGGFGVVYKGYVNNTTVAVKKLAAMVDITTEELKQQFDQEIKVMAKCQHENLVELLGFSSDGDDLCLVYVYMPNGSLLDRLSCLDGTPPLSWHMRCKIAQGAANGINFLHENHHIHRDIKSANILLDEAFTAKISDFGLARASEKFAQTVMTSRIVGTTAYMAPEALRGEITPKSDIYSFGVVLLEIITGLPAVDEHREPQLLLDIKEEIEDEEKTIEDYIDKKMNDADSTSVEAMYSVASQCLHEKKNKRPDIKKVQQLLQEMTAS
Put plainly: IRAK4 Inhibition Assay. The class given is biochemical. To be noted: ATP 500 μM; FL-IPTSPITTTYFFFKKK peptide 1.5 μM; IRAK4 0.6 nM; 60 min room temperature; Caliper LabChip 3000. Here is the method: The assays were performed in U-bottom 384-well plates. The final assay volume was 30 μL prepared from 15 μL additions of enzyme and substrates (fluoresceinated peptide and ATP) and test compounds in assay buffer (20 mM HEPES pH 7.2, 10 mM MgCl2, 0.015% Brij35 and 4 mM DTT). The reaction was initiated by the combination of IRAK4 with substrates and test compounds. The reaction was incubated at room temperature for 60 min. and terminated by adding 45 μL of 35 mM EDTA to each sample. The reaction mixture was analyzed on the Caliper LabChip 3000 (Caliper, Hopkinton, Mass.) by electrophoretic separation of the fluorescent substrate and phosphorylated product. Inhibition data were calculated by comparison to no enzyme control reactions for 100% inhibition and vehicle-only reactions for 0% inhibition. The final concentrations of reagents in the assays are ATP, 500 μM; FL-IPTSPITTTYFFFKKK peptide 1.5 μM; IRAK4, 0.6 nM; and DMSO, 1.6%.
Take `CC(C)Nc1cc(Nc2ccc3ncsc3c2)ncc1-c1nc(C(=O)NCCCN2CCCC2)cs1` [Example 82, 2-(6-(Benzo[d]thiazol-6-ylamino)-4-(isopropylamino)pyridin-3-yl)-N-(3-(pyrrolidin-1-yl)propyl)thiazole-4-carboxamide]: the IC50 worked out at 3.1 nM.

On to `Cc1oc(-c2cnc(Nc3ccc4ncsc4c3)cc2NC(C)C)nc1NC(=O)OC(C)(C)C` [Example 106, tert-butyl 2-(6-(benzo[d]thiazol-6-ylamino)-4-(isopropylamino)pyridin-3-yl)-5-methyloxazol-4-ylcarbamate], for which the IC50 was 875 nM.

For `CC(C)Nc1cc(Nc2ccc3ncsc3c2)ncc1-c1nc(C(=O)NCC2CCCCC2)cs1` [Example 56, 2-(6-(Benzo[d]thiazol-6-ylamino)-4-(isopropylamino)pyridin-3-yl)-N-(cyclohexylmethyl)thiazole-4-carboxamide], the IC50 was found to be 795 nM.

Regarding `CC(C)Nc1cc(Nc2ccc3ncsc3c2)ncc1-c1nnc(C(=O)N2CCC(N)CC2)o1` [Example 161, (4-Aminopiperidin-1-yl)(5-(6-(benzo[d]thiazol-6-ylamino)-4-(isopropylamino)pyridin-3-yl)-1,3,4-oxadiazol-2-yl)methanone], the IC50 is 23 nM.

In the case of `CC(C)Nc1cc(Nc2ccc3ncsc3c2)ncc1-c1nc(C(=O)NCC2CCCO2)cs1` (centres unmarked) [Example 59, 2-(6-(Benzo[d]thiazol-6-ylamino)-4-(isopropylamino)pyridin-3-yl)-N-((tetrahydrofuran-2-yl)methyl)thiazole-4-carboxamide], the IC50 came to 24 nM.

Turning to `CCOC(=O)c1nc(-c2cnc(Nc3ccc4ncsc4c3)cc2NC(C)C)sc1C` [Example 23, Ethyl 2-(6-(benzo[d]thiazol-6-ylamino)-4-(isopropylamino)pyridin-3-yl)-5-methylthiazole-4-carboxylate], the concentration for half-maximal inhibition (IC50) stood at 961 nM.

Take `CC(C)Nc1cc(Nc2ccc3ncsc3c2)ncc1-c1nc(C(N)=O)co1` [Example 108, 2-(6-(Benzo[d]thiazol-6-ylamino)-4-(isopropylamino)pyridin-3-yl)oxazole-4-carboxamide]: the IC50 came to 2.7 nM.

`CC(=O)NC1CCN(C(=O)c2nnc(-c3cnc(Nc4ccc5ncsc5c4)cc3NC(C)C)s2)C1` (centres unmarked) [Example 8, N-(1-(5-(6-(benzo[d]thiazol-6-ylamino)-4-(isopropylamino)pyridin-3-yl)-1,3,4-thiadiazole-2-carbonyl)pyrrolidin-3-yl)acetamide]: the IC50 turned out to be 3.3 nM.

Take `CC(C)Nc1cc(Nc2ccc3ncsc3c2)ncc1-c1ccc2cn[nH]c2c1` [Example 177, N2-(Benzo[d]thiazol-6-yl)-5-(1H-indazol-6-yl)-N4-isopropylpyridine-2,4-diamine]: the IC50 is 813 nM.

With `CC(C)Nc1cc(Nc2ccc3ncsc3c2)ncc1-c1nnc[nH]1` [Example 1, N2-(benzo[d]thiazol-6-yl)-N4-isopropyl-5-(4H-1,2,4-triazol-3-yl)pyridine-2,4-diamine], the IC50 turned out to be 25.3 nM.

Turning to `CC(C)Nc1cc(Nc2ccc3ncsc3c2)ncc1-c1nnc(-c2ccc(F)c(S(=O)(=O)NC(C)(C)C)c2)o1` [Example 143, 5-(5-(6-(Benzo[d]thiazol-6-ylamino)-4-(isopropylamino)pyridin-3-yl)-1,3,4-oxadiazol-2-yl)-N-(tert-butyl)-2-fluorobenzenesulfonamide], the half-inhibitory concentration (IC50) is 676 nM.

Consider `CC(C)Nc1cc(Nc2ccc3ncsc3c2)ncc1-c1nnc(C(=O)N2CCC(O)C2)s1` (single isomer, unassigned) [Example 6, (5-(6-(Benzo[d]thiazol-6-ylamino)-4-(isopropylamino)pyridin-3-yl)-1,3,4-thiadiazol-2-yl)(3-hydroxypyrrolidin-1-yl)methanone], for which the IC50 is 2.8 nM.

Turning to `CC(C)Nc1cc(Nc2ccc3ncsc3c2)ncc1-c1nc(C(=O)N2CCC3(CC2)C(=O)NCN3c2ccccc2)cs1` [Example 48, 8-(2-(6-(Benzo[d]thiazol-6-ylamino)-4-(isopropylamino)pyridin-3-yl)thiazole-4-carbonyl)-1-phenyl-1,3,8-triazaspiro[4.5]decan-4-one], the IC50 was found to be 576 nM.

Regarding `CC(C)Nc1cc(Nc2ccc3ncsc3c2)ncc1-c1nc(C(=O)N2CCN(c3ccc(F)cc3F)CC2)cs1` [Example 31, (2-(6-(Benzo[d]thiazol-6-ylamino)-4-(isopropylamino)pyridin-3-yl)thiazol-4-yl)(4-(2,4-difluorophenyl)piperazin-1-yl)methanone], the IC50 came to 764 nM.

In the case of `CC(C)Nc1cc(Nc2ccc3ncsc3c2)ncc1-c1nc(C(=O)NC[C@H](O)c2ccccc2)cs1` [Example 81, (R)-2-(6-(Benzo[d]thiazol-6-ylamino)-4-(isopropylamino)pyridin-3-yl)-N-(2-hydroxy-2-phenylethyl)thiazole-4-carboxamide], the half-maximal inhibitory concentration (IC50) was 26 nM.

With `CC(C)Nc1cc(Nc2ccc3ncsc3c2)ncc1-c1nnc(-c2cccc(C(N)=O)c2)o1` [Example 148, 3-(5-(6-(Benzo[d]thiazol-6-ylamino)-4-(isopropylamino)pyridin-3-yl)-1,3,4-oxadiazol-2-yl)benzamide], the IC50 amounted to 564 nM.

Regarding `CC(C)Nc1cc(Nc2ccc3ncsc3c2)ncc1-c1nnc(N2CCN(CCN3CCOCC3)CC2)o1` [Example 130, N2-(benzo[d]thiazol-6-yl)-N4-isopropyl-5-(5-(4-(2-morpholinoethyl)piperazin-1-yl)-1,3,4-oxadiazol-2-yl)pyridine-2,4-diamine], the half-maximal inhibitory concentration (IC50) came out at 22.1 nM.

With `COc1cccc(-c2cnc(Nc3ccc4ncsc4c3)cc2NC(C)C)n1` [Example 176, N6′-(Benzo[d]thiazol-6-yl)-N4′-isopropyl-6-methoxy-[2,3′-bipyridine]-4′,6′-diamine], the 50% inhibitory concentration (IC50) turned out to be 616 nM.

As to `CC(C)Nc1cc(Nc2ccc3ncsc3c2)ncc1-c1nnc(N2CCN(CCO)CC2)o1` [Example 129, 2-(4-(5-(6-(Benzo[d]thiazol-6-ylamino)-4-(isopropylamino)pyridin-3-yl)-1,3,4-oxadiazol-2-yl)piperazin-1-yl)ethanol], the concentration for half-maximal inhibition (IC50) came out at 25.4 nM.

Regarding `NC(=O)c1nnc(-c2cnc(Nc3ccc4ncsc4c3)cc2N[C@H](CO)Cc2ccccc2)o1` [Example 152, (S)-5-(6-(Benzo[d]thiazol-6-ylamino)-4-((1-hydroxy-3-phenylpropan-2-yl)amino)pyridin-3-yl)-1,3,4-oxadiazole-2-carboxamide], the IC50 came out at 24.5 nM.

`CC(C)Nc1cc(Nc2ccc3ncsc3c2)ncc1-c1nnc(NC2CNC2)o1` [Example 128, 5-(5-(Azetidin-3-ylamino)-1,3,4-oxadiazol-2-yl)-N2-(benzo[d]thiazol-6-yl)-N4-isopropylpyridine-2,4-diamine]: the IC50 stood at 26.4 nM.

Regarding `Cc1sc(-c2cnc(Nc3ccc4ncsc4c3)cc2NC(C)C)nc1C(=O)NCCCN1CCCCC1` [Example 25, 2-(6-(benzo[d]thiazol-6-ylamino)-4-(isopropylamino)pyridin-3-yl)-5-methyl-N-(3-(piperidin-1-yl)propyl)thiazole-4-carboxamide], the IC50 is 2.7 nM.

As to `CC(C)Nc1cc(Nc2ccc(C#N)cc2)ncc1-c1nnc(NC[C@@H](F)CO)o1` [Example 115, (R)-4-((5-(5-((2-Fluoro-3-hydroxypropyl)amino)-1,3,4-oxadiazol-2-yl)-4-(isopropylamino)pyridin-2-yl)amino)benzonitrile], the IC50 was 22.9 nM.

For the molecule `CNC(=O)c1ccc(Nc2cc(Nc3ccc4ncsc4c3)ncc2-c2nnc(C(=O)N3CC[C@@H](O)C3)s2)cc1` [Example 19, (R)-4-((2-(benzo[d]thiazol-6-ylamino)-5-(5-(3-hydroxypyrrolidine-1-carbonyl)-1,3,4-thiadiazol-2-yl)pyridin-4-yl)amino)-N-methylbenzamide], the IC50 turned out to be 3.2 nM.

As to `CC(C)Nc1cc(Nc2ccc3nsnc3c2)ncc1-c1nnc(C(=O)N2CC[C@@H](O)C2)s1` [Example 3, (R)-(5-(6-(Benzo[c][1,2,5]thiadiazol-5-ylamino)-4-(isopropylamino)pyridin-3-yl)-1,3,4-thiadiazol-2-yl)-(3-hydroxypyrrolidin-1-yl)methanone], the IC50 came to 2.5 nM.

With `CC(C)Nc1cc(Nc2ccc3ncsc3c2)ncc1-c1nnc(C(=O)N2CCC(O)C2)s1` (single isomer, unassigned) [Example 7, (5-(6-(Benzo[d]thiazol-6-ylamino)-4-(isopropylamino)pyridin-3-yl)-1,3,4-thiadiazol-2-yl)(3-hydroxypyrrolidin-1-yl)methanone], the IC50 turned out to be 3.2 nM.
